Entries after “also recorded” stand apart in the source; their conditions may differ.
Key:
[1] = molecular target: T1, phosphofructokinase-1 liver type (PFKL) (Homo sapiens, UniProt P17858); assay: PFKL activation; format: biochemical
T1 sequence (P17858 1-780): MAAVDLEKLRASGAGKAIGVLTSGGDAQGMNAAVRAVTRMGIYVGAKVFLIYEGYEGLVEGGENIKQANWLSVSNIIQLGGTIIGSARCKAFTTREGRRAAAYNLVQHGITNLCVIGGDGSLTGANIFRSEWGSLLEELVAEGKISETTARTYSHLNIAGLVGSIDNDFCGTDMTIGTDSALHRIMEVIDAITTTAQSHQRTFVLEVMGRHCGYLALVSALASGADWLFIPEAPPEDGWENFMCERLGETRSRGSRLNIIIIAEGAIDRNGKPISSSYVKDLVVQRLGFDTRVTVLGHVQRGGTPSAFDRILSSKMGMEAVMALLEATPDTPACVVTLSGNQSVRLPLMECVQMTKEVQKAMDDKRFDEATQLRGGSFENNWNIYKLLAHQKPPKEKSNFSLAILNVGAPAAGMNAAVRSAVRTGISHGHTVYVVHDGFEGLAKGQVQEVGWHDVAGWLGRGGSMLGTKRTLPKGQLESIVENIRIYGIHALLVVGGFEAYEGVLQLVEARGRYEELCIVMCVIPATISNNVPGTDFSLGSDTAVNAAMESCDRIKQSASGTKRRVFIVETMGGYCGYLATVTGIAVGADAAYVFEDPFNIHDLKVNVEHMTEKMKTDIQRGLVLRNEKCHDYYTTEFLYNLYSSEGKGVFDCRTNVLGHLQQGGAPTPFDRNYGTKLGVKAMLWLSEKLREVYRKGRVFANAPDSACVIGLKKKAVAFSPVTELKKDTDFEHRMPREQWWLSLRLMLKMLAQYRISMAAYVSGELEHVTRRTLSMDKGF

[2] = tested on: GSDMD-dependent pyroptosis in primary human monocytes and human monocytic THP-1 cells; assay: GSDMD-dependent pyroptosis, LDH release; format: cell-based; conditions: induced by nigericin, cytoplasmic LPS or cytoplasmic poly(dA-dT)
Method: (§1) FIG. 1. […] LDH (A) or IL-1β (B) released from primary human monocytes. Bars show the mean±s.e.m. of monocytes from 3 donors. (C) Western blots of monocytes at 1 h after electroporation with LPS. FL, full length GSDMD. NT, N-terminal fragment of GSDMD. Results representative of 3 independent experiments. (D) Coomassie blue staining of recombinant GSDMD. Results representative of 3 independent experiments. (E) TR-FRET assay measuring Europium-labeled biotin released from liposomes exposed to caspase-4 and GSDMD. Symbols indicate the mean±s.d. of 3 independent experiments. (F-G) Percentage of polymorphonuclear leukocytes (PMNs) undergoing NETosis induced by PMA (F) or the stimuli indicated (G). Data are the mean±s.d. of cells from 3 donors. (H) ROS production by PMNs. Bars show the mean±s.e.m. of PMNs from 3 donors. P-values (Two-way ANOVA, means compared to medium alone) are shown if P<0.05. (I) Percentage of PMNs undergoing PMA-induced NETosis. The x-axis indicates when NA-11 was added relative to the addition of PMA (t=0). Bars show the mean±s.e.m. of PMNs from 3 donors. P-values (one-way ANOVA, means compared to medium alone) are shown if P<0.05.
(§2) LDC7559 was reported to block the pore-forming activity of GSDMD (Sollberger et al., 2018). The ability to inhibit GSDMD-dependent pyroptosis in primary human monocytes and human monocytic THP-1 cells was tested (FIG. 1A-C).

GSDMD = molecular target: T2, GSDMD (Homo sapiens, UniProt P57764); assay: Western blot of LPS-induced cleavage of GSDMD in monocytes; format: cell-based; conditions: monocytes after electroporation with LPS
T2 construct: Western blots of monocytes at 1 h after electroporation with LPS; endogenous in cells; host or cells: primary human monocytes
T2 sequence (P57764 1-484): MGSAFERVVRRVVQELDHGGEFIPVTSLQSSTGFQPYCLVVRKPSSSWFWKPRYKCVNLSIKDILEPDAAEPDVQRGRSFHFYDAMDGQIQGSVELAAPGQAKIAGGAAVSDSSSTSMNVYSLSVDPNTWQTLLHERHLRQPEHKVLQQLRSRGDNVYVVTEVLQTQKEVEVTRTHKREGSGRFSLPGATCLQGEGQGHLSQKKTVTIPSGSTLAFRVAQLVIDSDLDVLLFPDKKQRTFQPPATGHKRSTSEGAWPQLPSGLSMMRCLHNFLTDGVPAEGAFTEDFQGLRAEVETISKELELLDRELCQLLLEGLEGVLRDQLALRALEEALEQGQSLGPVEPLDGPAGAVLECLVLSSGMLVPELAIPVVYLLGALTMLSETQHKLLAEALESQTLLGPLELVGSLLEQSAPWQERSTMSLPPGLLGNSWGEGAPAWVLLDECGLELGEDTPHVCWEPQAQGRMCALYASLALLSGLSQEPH
Method: as §1, §2

[3] = tested on: neutrophils (PMA-stimulated NETosis); assay: Quantification of NETosis using SYTOX Green; format: cell-based, human; conditions: for NETosis (qualitative): polymorphonuclear leukocytes, FIG. 1
From the text: Semi-automated analysis of both phase and fluorescence images of SYTOX Green-stained neutrophils used a MATLAB algorithm. Total cells were counted by scoring phase standard deviation and radial symmetry. NETosis was classified in cells by measuring the DNA area in the fluorescence image and comparing with a select internal training set for each experiment. Unstimulated cells and PMA-stimulated, pyocyanin-inhibited cells served as negative controls. PMA-stimulated cells served as a positive control. NET-forming cells are presented as a percentage of total cells.

[4] = tested on: NOX2-dependent oxidative burst in neutrophils; assay: NOX2-dependent oxidative burst in neutrophils; format: cell-based
[5] = molecular target: T3, recombinant GSDMD / caspase-4 (Homo sapiens, UniProt P57764); assay: Cleavage of recombinant GSDMD by caspase-4; format: biochemical
T3 sequence (P57764 1-484): T2 sequence (P57764 1-484)
Method: as §1, §2

[6] = tested on: GSDMD-dependent release of interleukin-1β (IL-1β) from monocytes; assay: GSDMD-dependent release of IL-1β from monocytes; format: cell-based, human; conditions: in response to nigericin or poly(dA-dT)
Method: as §1, §2

[7] = molecular target: T4, GSDMD pore-forming fragment (Homo sapiens, UniProt P57764); assay: TR-FRET liposome permeabilization by GSDMD pore-forming fragment; format: biochemical; conditions: liposomes exposed to caspase-4 and GSDMD
T4 sequence (P57764 1-275 limits assumed): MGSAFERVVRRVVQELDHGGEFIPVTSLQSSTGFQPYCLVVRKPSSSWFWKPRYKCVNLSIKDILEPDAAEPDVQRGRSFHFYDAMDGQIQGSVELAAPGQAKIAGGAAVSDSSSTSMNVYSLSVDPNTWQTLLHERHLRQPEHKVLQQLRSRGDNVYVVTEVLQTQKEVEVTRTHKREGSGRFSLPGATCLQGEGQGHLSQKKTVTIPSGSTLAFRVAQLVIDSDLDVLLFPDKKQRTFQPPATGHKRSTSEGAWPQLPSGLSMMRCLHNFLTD
Method: as §1, §2

[8] = molecular target: T5, phosphofructokinase-1 platelet type (PFKP) (Homo sapiens, UniProt Q01813); assay: PFKP activation; format: biochemical
T5 sequence (Q01813 1-784): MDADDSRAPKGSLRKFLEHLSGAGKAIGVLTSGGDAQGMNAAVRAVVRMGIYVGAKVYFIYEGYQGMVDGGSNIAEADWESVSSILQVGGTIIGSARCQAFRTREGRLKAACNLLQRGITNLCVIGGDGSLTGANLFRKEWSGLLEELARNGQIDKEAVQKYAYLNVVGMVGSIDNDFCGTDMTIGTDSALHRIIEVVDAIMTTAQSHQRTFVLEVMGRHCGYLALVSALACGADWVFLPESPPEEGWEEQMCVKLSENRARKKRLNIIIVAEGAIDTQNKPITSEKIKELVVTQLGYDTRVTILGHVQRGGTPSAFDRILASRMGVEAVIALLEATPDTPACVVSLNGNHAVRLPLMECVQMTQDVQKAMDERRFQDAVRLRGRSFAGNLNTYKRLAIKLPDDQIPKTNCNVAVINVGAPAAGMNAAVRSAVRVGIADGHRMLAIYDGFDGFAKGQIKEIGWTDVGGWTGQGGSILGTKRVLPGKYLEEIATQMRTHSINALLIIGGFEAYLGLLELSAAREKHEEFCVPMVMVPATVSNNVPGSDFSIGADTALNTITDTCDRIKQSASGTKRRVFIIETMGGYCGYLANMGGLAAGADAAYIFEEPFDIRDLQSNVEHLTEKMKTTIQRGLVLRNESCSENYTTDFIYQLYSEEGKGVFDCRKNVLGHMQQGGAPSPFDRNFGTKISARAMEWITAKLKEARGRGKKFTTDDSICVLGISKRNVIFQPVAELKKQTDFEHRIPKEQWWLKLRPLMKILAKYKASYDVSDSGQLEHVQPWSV

[9] = molecular target: T6, phosphofructokinase-1 muscle type (PFKM) (Homo sapiens, UniProt P08237); assay: PFKM activation; format: biochemical
T6 sequence (P08237 1-780): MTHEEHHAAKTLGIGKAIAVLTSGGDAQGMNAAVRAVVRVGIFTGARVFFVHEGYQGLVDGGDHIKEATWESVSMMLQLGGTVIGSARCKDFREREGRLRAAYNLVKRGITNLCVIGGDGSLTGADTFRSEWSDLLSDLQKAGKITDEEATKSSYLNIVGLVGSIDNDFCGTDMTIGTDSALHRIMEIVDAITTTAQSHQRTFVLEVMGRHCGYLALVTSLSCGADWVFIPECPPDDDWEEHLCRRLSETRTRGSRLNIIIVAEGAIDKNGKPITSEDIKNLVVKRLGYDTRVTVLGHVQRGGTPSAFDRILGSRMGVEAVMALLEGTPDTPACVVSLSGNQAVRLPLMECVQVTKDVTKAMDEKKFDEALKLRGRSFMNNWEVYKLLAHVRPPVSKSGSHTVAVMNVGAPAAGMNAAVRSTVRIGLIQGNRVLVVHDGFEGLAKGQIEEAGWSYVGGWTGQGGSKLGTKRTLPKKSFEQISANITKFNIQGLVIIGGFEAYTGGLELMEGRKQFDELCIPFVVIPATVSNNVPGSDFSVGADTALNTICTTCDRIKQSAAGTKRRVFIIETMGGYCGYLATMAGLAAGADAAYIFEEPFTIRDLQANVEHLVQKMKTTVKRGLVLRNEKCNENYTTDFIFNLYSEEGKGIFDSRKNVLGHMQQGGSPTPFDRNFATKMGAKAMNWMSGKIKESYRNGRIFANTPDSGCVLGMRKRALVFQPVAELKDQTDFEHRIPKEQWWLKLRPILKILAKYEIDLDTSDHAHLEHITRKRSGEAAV

[10] = tested on: neutrophils (PMA-stimulated ROS); assay: ROS detection assay (ROS-Glo, H2O2); format: cell-based; conditions: Neutrophil; human neutrophils, 30 min preincubation, 50 nM PMA for 30 min
Method: ROS were measured in neutrophils using the ROS-Glo bioluminescent assay (Promega) for the direct detection of H2O2. Neutrophils were isolated from fresh human blood using a biphasic Histopaque gradient as described here. Cells (100 uL per well) were plated in 96-well plates at a density of 200,000 cells/mL in high glucose DMEM medium. Cells were preincubated with either DMSO vehicle or compounds (10-point dilution curve starting at 2 uM with 3-fold serial dilution) for 30 min, and then stimulated with 50 nM PMA for 30 min. Luminescence, after the addition of H2O2 substrate solution for 20 min, and then ROS-Glo detection solution for 20 min, was recorded on a luminescence plate reader. The fifty percent inhibitory concentration (IC50) was determined with GraphPad Prism by plotting the assay output (RLU) versus the logarithm of the compound concentration using a non-linear sigmoid with variable slope algorithm with the default curve-fitting parameters in the Prism software.

## COc1ccccc1-c1cc2n(n1)Cc1ccc(NC(C)=O)cc1OC2 [LDC7559, N-(2-(2-methoxyphenyl)-4H,10H-benzo[f]pyrazolo[5,1-c][1,4]oxazepin-7-yl)acetamide]
[1]
  agonism/activation of PFKL: activating; also recorded: agonize
[2]
  GSDMD-dependent pyroptosis (LDH release): did not alter
GSDMD
  LPS-induced cleavage of GSDMD (Western blotting): did not prevent
[3]
  NETosis (qualitative): inhibit NETosis
[4]
  NOX2-dependent oxidative burst: inhibit; also recorded: suppress
[5]
  cleavage of recombinant GSDMD by caspase-4: did not inhibit
[6]
  GSDMD-dependent release of IL-1β: occurred normally
[7]
  liposome permeabilization by GSDMD pore-forming fragment: Nor did it prevent

## CC(=O)Nc1ccc2c(c1)OCc1cc(-c3ccccc3C#CCCCO)nn1C2 [Example 6, N-(2-(2-(5-hydroxypent-1-yn-1-yl)phenyl)-4H,10H-benzo[f]pyrazolo[5,1-c][1,4]oxazepin-7-yl)acetamide]
[1]
  agonism/activation of PFKL: activating
[3]; Homo sapiens, Neutrophil, NETosis, SYTOX Green-stained neutrophils, PMA-stimulated
  IC50: 4 ± 0.5 nM
[3]; compound at 5 uM, NET-forming cells as percentage of total cells, vehicle 79.66, untreated 14.54
  5 uM (% NETosis): 58.67%
[3]
  NETosis (qualitative): inhibit NETosis
[4]
  NOX2-dependent oxidative burst: inhibit
[8]
  agonism of PFKP: failed to agonize
[9]
  agonism of PFKM: failed to agonize
[10]
  IC50: 26 nM
